Results taken from patent US20140106387A1, “METHOD FOR CONTROLLING NAD(P)/NAD(P)H RATIO BY OXIDOREDUCTASE” (MD BIOALPHA CO., LTD., priority 2006, published 2014).

Columns and labels:
AMPK = AMPK phosphorylation in HEK293 cells (Western blot); assay type: cell-based, human; conditions: 10 μM, 30 min
Description: Cells were lysed in SDS sample buffer (62.5 mM Tris HCl (pH 6.8), 6% (w/v) SDS, 30% glycerol, 125 mM DTT, and 0.03% (w/v) bromophenol blue). The total cell lysates were boiled at a temperature of 100° C. for 5 min and electrophoresed on a sodium dodecyl sulfate-polyacrylamide gel, and proteins were transferred on a nitrocellulose membrane. The membrane was reacted in TBS (5% (w/v) milk and 0.1% Tween 20) for 1 hour, and then reacted with primary antibodies for 2 hours. Next, the membrane was developed using HRP-conjugated secondary antibodies (Phototope-HRP Western Blot Detection Kit, New England Biolabs, Beverly, Mass.).
In order to investigate the importance of an NQO1 protein in phosphorylation of AMP kinase, HepG2, MCF-7 and HEK293 cells were seeded onto 60 mm plates at a density of 1×10^6 cells/plate. After growing the cells for 24 hours, the culture medium was replaced with a serum-free medium, and cells were treated with pyrano-1,2-naphthoquinone (10 μM) for 30 min, respectively, in combination with a control group (DMSO). Cells were lysed in RIPA buffer and amounts of all proteins were quantified using a spectrophotometer, and 50 μg of the protein was subjected to electrophoresis. AMP kinase phosphorylation was examined using Anti-AMPK and Anti-pT172-AMPK, whereas the NQO1 protein was assayed using Anti-NQO1. From the fact that AMP kinase phosphorylation by pyran-1,2-naphthoquinone (10 μM) was not observed in HEK293 cells, it can be seen that the NQO1 protein is crucial for phosphorylation of AMP kinase.
In order to examine that an activity of NQO1 is important for the phosphorylation of AMP kinase, HEK293 cells were seeded onto a 6-well plate at a density of 1×10^5 cells/well, cultured for 24 hours, and transfected with pSG5-HA-NQO1 (500 ng) and pSG5-HA-NOQ1-C609T (500 ng) plasmids. After 24 hours, the culture medium was replaced with a serum-free medium, and the cells were treated with pyrano-1,2-naphthoquinone (10 μM) and AICAR (2 mM) for 30 min, in combination with a control (DMSO). AMP kinase phosphorylation were assayed using Anti-AMPK and Anti-pT172-AMPK, whereas transfected NQO1 was assayed using Anti-HA.
In addition, AMPK phosphorylation/activation was not promoted in HEK293 cells, except for HEK293 cells transfected with wild type NQO1.

NQO1 = assay: NAD(P)H recycling assay (decrease of NAD(P)H by NQO1-activating candidate compounds); assay type: biochemical
Description: (10) NAD(P)H Recycling Assay
An NADH recycling assay was carried out using the above-extracted S9 supernatant or human recombinant NQO1 (hrNQO1). 20 μg of the S9 supernatant or 0.5 unit of hrNQO1 in conjunction with 200 μM NAD(P)H were added to a 25 mM Tris/HCl (pH 7.4) solution containing 0.2 mg/mL bovine serum albumin. The enzymatic reaction was initiated with addition of a […] compound and absorbance changes were monitored and recorded at 340 nm for 10 min.
For a variety of NQO1-activating candidate compounds as listed in Table 1 below, a decrease of NAD(P)H was measured based on the aforesaid experimental method (disclosed in Section 10 hereinbefore: NADH recycling assay). In addition, according to the experimental method given in Example 23, the body weight of ob/ob mice after four weeks was measured.
In this connection, the decreasing degree of NAD(P)H was expressed as a relative amount of NAD(P)H measured upon administration of the NQO1-activating candidate compound, by taking the amount of NAD(P)H in the absence of the NQO1 activator NAD(P)H to be 100. In addition, the degree of the body weight loss was expressed as a percentage of the body weight of ob/ob mice with administration of the NQO1-activating candidate compound, relative to the body weight of ob/ob mice without administration of the NQO1-activating candidate compound (control) after four weeks.

AMPKα, ACC = assay: AMPKα and ACC phosphorylation in tissues of DIO mice (Western blot); assay type: in vivo, mouse
Description: HepG2 (human hepatoma cell line), HEK293 (Human embryonic kidney cell line), and C2C12/L6 myoblasts were purchased from American Type Culture Collection (ATCC, Manassas, Va., USA). LKB−/− MEFs were purchased from R.A. DePinho. Rat ventricular myocytes were enzymatically isolated from the heart of adult […] by a known method. Phosphorylation of AMPK (Thr172) and ACC (Ser79) was measured by Western blot analysis using Cell Signaling Technologies and pan- and phospho-specific antibodies (Upstate Biotechnology, Inc., Lake Placid, N.Y.).
Using various proteins extracted from liver, gonadal fat (WAT), EDL and soleus muscle of DIO mice treated with a vehicle or βL for 2 days, T172 phosphorylation of AMPKα and S79 phosphorylation of ACC in each tissue were measured by Western blot analysis.
FIG. 26 is a photograph showing effects of an NQO1 activator on AMPK & ACC phosphorylation in C57BL/6 mice. In order to investigate anti-obesity effects of an NQO1 activator, the NQO1 activator was administered daily to DIO mice at a dose of 50 mg/kg via an oral route, and effects of the NQO1 activator on phosphorylation of AMPK and ACC, which play an important role in energy metabolism and lipogenesis in the liver and gonadal adipose tissues, were examined. […] Phosphorylated AMPK is believed to activate metabolism associated with energy. Whereas, it is believed that ACC, which is affected by activation of AMPK, is phosphorylated and lipogenic activity thereof is then inhibited, which will then exert some effects on lipid metabolism including inhibition of obesity.

cardiomyocytes = assay: intracellular NAD(P)H fluorescence in cardiomyocytes; assay type: cell-based
Description: HepG2 (human hepatoma cell line), HEK293 (Human embryonic kidney cell line), and C2C12/L6 myoblasts were purchased from American Type Culture Collection (ATCC, Manassas, Va., USA). LKB-/- MEFs were purchased from R.A. DePinho. Rat ventricular myocytes were enzymatically isolated from the heart of adult […] by a known method. Phosphorylation of AMPK ([…]) and ACC ([…]) was measured by Western blot analysis using Cell Signaling Technologies and pan- and phospho-specific antibodies (Upstate Biotechnology, Inc., Lake Placid, N.Y.). In order to monitor monochromatic fluorescence (350 nm), light was illuminated using a 75 W xenon arc lamp directed via a 10 Hz chopper wheel; specific fluorescence intensity was measured at a wavelength of 405±15 nm and 460±10 nm. Even though autofluorescence at 460 nm may occur from unknown intracellular components or cytosolic NAD(P)H, most of the light detected by the method of the present invention was generated from mitochondrial NAD(P)H. Specifically, the NQO1 activity and changes in the intracellular NAD(P)H fluorescence concentration in the presence/absence of NQO1 activity were measured in HepG2, HEK293 and pSG5 HA-NQO1 or pSG5 HA NQO1 […]-inserted HEK293 cells.

## CC1(C)CCC2=C(O1)c1ccccc1C(=O)C2=O [βL, 2,2-Dimethyl-3,4-dihydro-2H-benzo[h]chromene-5,6-dione]
AMPK; HEK293 cells (no NQO1)
  AMP kinase phosphorylation: not promoted
AMPK; HEK293 cells (no NQO1), listed as pyran-1,2-naphthoquinone
  AMP kinase phosphorylation: not observed
AMPK; HEK293 transfected with NQO1-C609T having no NQO1 activity
  AMP kinase phosphorylation: no phosphorylation of AMP kinase
NQO1; relative amount of NAD(P)H, amount in the absence of the NQO1 activator taken to be 100
  Residual amount of NAD(P)H(%): 61.27 ± 1.09%
NQO1; summary of Table 1 in words
  decrease of NAD(P)H and consequent body weight reduction: significant decrease of NAD(P)H
AMPKα, ACC; C57BL/6 DIO mice, 50 mg/kg daily, oral
  phosphorylation of AMPK and ACC in the gonadal and liver tissues: has an effect on phosphorylation of AMPK and ACC
AMPKα, ACC; gonadal fat of DIO mice treated for 2 days
  S79 phosphorylation of ACC and T172 phosphorylation of AMPKα: no such effects
AMPKα, ACC; liver and muscle (EDL, Soleus) of DIO mice treated for 2 days
  S79 phosphorylation of ACC and T172 phosphorylation of AMPKα: increased
cardiomyocytes
  decrease of NAD(P)H: about 40%
